Earlier results, collected in patent publication US20120021445A1, “Pluripotent Stem Cells for Drug Induced Myopathy and Malignant Hyperthermia” (priority 2010, published 2012).

Tests used:
[1] = rhabdomyolysis defined as acute elevation of CK (>15 000 ULN); unit not given

Structure (SMILES): CC(C)c1c(C(=O)Nc2ccccc2)c(-c2ccccc2)c(-c2ccc(F)cc2)n1CC[C@@H](O)C[C@@H](O)CC(=O)O [atrovarstatin]
- reported incidence of rhabdomyolysis [1]: 0.04

Structure (SMILES): O=C1CN(/N=C/c2ccc(-c3ccc([N+](=O)[O-])cc3)o2)C(O)=N1 [dantrolene]
- lack of efficacy in malignant hyperthermia patients: up to 5%

Structure (SMILES): CC[C@H](C)C(=O)O[C@H]1C[C@@H](C)C=C2C=C[C@H](C)[C@H](CC[C@@H]3C[C@@H](O)CC(=O)O3)[C@H]21 [lovostatin]
- reported incidence of rhabdomyolysis [1]: 0.19

Structure (SMILES): CC[C@H](C)C(=O)O[C@H]1C[C@H](O)C=C2C=C[C@H](C)[C@H](CC[C@@H](O)C[C@@H](O)CC(=O)O)[C@H]21 [pravastatin]
- reported incidence of rhabdomyolysis [1]: 0.04
